Biological target: T1, ERα (Homo sapiens, UniProt P03372)
T1 construct: host or cells: MCF7
T1 sequence (P03372 1-595): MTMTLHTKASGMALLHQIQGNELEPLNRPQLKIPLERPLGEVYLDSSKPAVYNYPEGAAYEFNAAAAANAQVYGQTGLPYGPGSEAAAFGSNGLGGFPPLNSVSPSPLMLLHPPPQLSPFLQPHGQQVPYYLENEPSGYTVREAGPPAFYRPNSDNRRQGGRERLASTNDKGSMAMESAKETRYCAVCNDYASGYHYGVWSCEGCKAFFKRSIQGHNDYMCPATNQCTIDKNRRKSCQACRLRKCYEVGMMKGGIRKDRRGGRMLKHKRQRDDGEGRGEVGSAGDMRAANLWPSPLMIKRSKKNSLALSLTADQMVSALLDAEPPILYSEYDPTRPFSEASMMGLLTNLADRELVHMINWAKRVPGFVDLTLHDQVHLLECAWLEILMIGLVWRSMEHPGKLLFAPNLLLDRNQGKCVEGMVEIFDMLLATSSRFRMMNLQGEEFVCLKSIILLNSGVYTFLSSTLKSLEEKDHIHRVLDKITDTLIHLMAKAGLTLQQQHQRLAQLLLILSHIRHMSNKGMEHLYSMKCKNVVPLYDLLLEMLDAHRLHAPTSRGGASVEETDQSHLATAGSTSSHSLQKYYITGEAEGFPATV
Assay: Estrogen receptor degradation activity: breast cancer cell ERα in cell western assay (MCF7 cells)
Assay type: cell-based
Details: 4 hours, % of ERα levels decrease relative to fulvestrant (0.1 μM) and DMSO
Procedure: Test: Estrogen Receptor Degradation Activity
Said test involves measuring the in vitro degradation activity of the compounds of the Table 1a.
The measurements of the degradation activities were made using a breast cancer cell ERα in cell western assay as described hereunder.
MCF7 cells (ATCC) were seeded in 384 wells microplate (collagen coated) at a concentration of 10000 cells/30 μL per well in red phenol free MEM alpha medium (invitrogen) containing 5% charcoal dextran striped FBS. The following day, 9 points serial 1:5 dilution of each compound was added to the cells in 2.5 μL at final concentrations ranging from 0.3-0.0000018 μM (in table 2), or 0.1 μM for fulvestrant (using as positive control). At 4 hours post compound addition the cells were fixed by adding 25 μL of formalin (final concentration 5% formalin containing 0.1% triton) for 10 minutes at room temperature and then washed twice with PBS. Then, 50 μL of LI-COR blocking buffer containing 0.1% Triton was added to plate for 30 minutes at room temperature. LI-COR blocking buffer was removed and cells were incubated overnight at cold room with 50 μL anti-ER rabbit monoclonal antibody (Thermo scientific MA1-39540) diluted at 1:1000 in LI-COR blocking buffer containing 0.1% tween-20. Wells which were treated with blocking buffer but no antibody were used as background control. Wells were washed twice with PBS (0.1% tween-20) and incubated at 37° C. for 60 minutes in LI-COR (0.1% tween-20) containing goat anti-rabbit antibody Alexa 488 (1:1000) and Syto-64 a DNA dye (2 μM final concentration). Cells were then washed 3 times in PBS and scanned in ACUMEN explorer (TTP-Labtech). Integrated intensities in the green fluorescence and red fluorescence were measured to determine the levels of ERα and DNA respectively.
The degradation activity with respect to estrogen receptors in this test is given by the concentration which degrades 50% of the estrogen receptor (or IC50) in nM.
The % of ERα levels decrease were determined as follows: % inhibition=100*(1−(sample−fulvestrant:DMSO−fulvestrant)).

Row | Structure (SMILES) | % Degradation At 0.3 μM [%]
1 | O=C(O)c1ccc2c(c1)CCCC(c1ccc(F)cc1Cl)=C2c1ccc(/C=C2/CCN(CCCF)C2)cc1 [Compound 2, (Z)-8-(2-chloro-4-fluorophenyl)-9-(4-((1-(3,3-fluoropropyl)pyrrolidin-3-ylidene)methyl)phenyl)-6,7-dihydro-5H-benzo[7]annulene-3-carboxylic acid] | 91
2 | FCCCN1CC/C(=C/c2ccc(C3=C(c4ccccc4Cl)CCCc4ccccc43)cc2)C1 [Compound 7, (Z)-3-(4-(8-(2-chlorophenyl)-6,7-dihydro-5H-benzo[7]annulen-9-yl)benzylidene)-1-(3-fluoropropyl)pyrrolidine] | 82
3 | O=C(O)c1ccc2c(c1)CCCC(c1ccc(F)cc1C(F)(F)F)=C2c1ccc(/C=C2/CCN(CCC(F)F)C2)cc1 [Compound 18, (Z)-9-(4-((1-(3,3-difluoropropyl)pyrrolidin-3-ylidene)methyl)phenyl)-8-(4-fluoro-2-(trifluoromethyl)phenyl)-6,7-dihydro-5H-benzo[7]annulene-3-carboxylic acid] | 86
4 | Cc1c(Cl)cccc1C1=C(c2ccc(/C=C3/CCN(CCC(F)F)C3)cc2)c2ccc(C(=O)O)cc2CCC1 [Compound 13, (Z)-8-(3-chloro-2-methylphenyl)-9-(4-((1-(3,3-difluoropropyl)pyrrolidin-3-ylidene)methyl)phenyl)-6,7-dihydro-5H-benzo[7]annulene-3-carboxylic acid] | 86
5 | Cc1cccc(C2=C(c3ccc(/C=C4/CCN(CCC(F)F)C4)cc3)c3ccc(C(=O)O)cc3CCC2)c1C(F)(F)F [Compound 12, (Z)-9-(4-((1-(3,3-difluoropropyl)pyrrolidin-3-ylidene)methyl)phenyl)-8-(3-methyl-2-(trifluoromethyl)phenyl)-6,7-dihydro-5H-benzo[7]annulene-3-carboxylic acid] | 85

Results, then the molecule that gave them:

Row | % Degradation At 0.3 μM [%] | Structure (SMILES)
6 | 92 | Cc1cc(C2=C(c3ccc(/C=C4/CCN(CCCF)C4)cc3)c3ccc(C(=O)O)cc3CCC2)c(C)cc1F [Compound 29, (Z)-8-(4-fluoro-2,5-dimethylphenyl)-9-(4-((1-(3-fluoropropyl)pyrrolidin-3-ylidene)methyl)phenyl)-6,7-dihydro-5H-benzo[7]annulene-3-carboxylic acid]
7 | 91 | Cl.O=C(O)c1ccc2c(c1)CCC(c1ccc(Cl)cc1Cl)=C2c1ccc(/C=C2/CCN(CCCF)C2)cc1 [Compound 24, (Z)-6-(2,4-dichlorophenyl)-5-(4-((1-(3-fluoropropyl)pyrrolidin-3-ylidene)methyl)phenyl)-7,8-dihydronaphthalene-2-carboxylic acid hydrochloride]
8 | 93 | O=C(O)c1ccc2c(c1)CCCC(c1ccc(Cl)cc1)=C2c1ccc(/C=C2/CCN(CCCF)C2)cc1 [Compound 28, (Z)-8-(4-chlorophenyl)-9-(4-((1-(3-fluoropropyl)pyrrolidin-3-ylidene)methyl)phenyl)-6,7-dihydro-5H-benzo[7]annulene-3-carboxylic acid]
9 | 96 | O=C(O)c1ccc2c(c1)CCCC(c1ccc(Cl)cc1Cl)=C2c1ccc(/C=C2/CCN(CCCF)C2)c(F)c1 [Compound 23, (Z)-8-(2,4-dichlorophenyl)-9-(3-fluoro-4-((1-(3-fluoropropyl)pyrrolidin-3-ylidene)methyl)phenyl)-6,7-dihydro-5H-benzo[7]annulene-3-carboxylic acid]

— US20250250261A1, “NOVEL SUBSTITUTED FLUORINATED VINYL-N-PROPYL-PYRROLIDINE COMPOUNDS, PROCESSES FOR THEIR PREPARATION AND THERAPEUTIC USES THEREOF” (SANOFI, priority 2022, published 2025)
